Read-outs that look alike come from different tables or passages of the source. Where a SMILES comes first, the peptide text is derived from it.
Key:
[1] = target: T1, SARS-CoV-2 M^Pro (Severe acute respiratory syndrome coronavirus 2, UniProt P0DTD1); assay: Determination of IC50 values for SARS-CoV-2 M^Pro (fluorogenic peptide substrate, end-point); assay type: biochemical; conditions: 12.5 nM M^Pro, 20 min preincubation, 30 μM substrate; read-out: M^Pro IC50
[2] = target: T2, Cathepsin B (Homo sapiens, UniProt P07858); assay: Cathepsin B inhibition assay kit (Abcam), IC50; assay type: biochemical; conditions: 20 min pretreatment
T2 construct: purchased Abcam ab185438
Experimental: (§1) Determination of IC50 and kinact/KI values for Cathepsins L and B
IC50 and kinact/KI values of the inhibitors were determined using commercially available inhibition assay kits (Abcam) by following the manufacturer's protocol. For IC50 values, enzymes were pretreated with test inhibitor (0-50 μM) for 20 min prior to adding the fluorogenic substrate, and end-point fluorescence was recorded after 30 min. For the kinact/KI values, enzymes were treated with inhibitor and substrate simultaneously and increase in fluorescence was monitored over 60 min. The observed rates (kobs) were determined by fitting to a single-phase association equation. The resulting kobs values were plotted against the concentrations of inhibitor and the data were fit to equation 2 to derive the kinact/KI values,
(§2) using GraphPad Prism, where kinact is the maximal rate of inactivation, KI is the concentration of inhibitor that affords half-maximal inactivation, and [I] is the concentration of inhibitor. When kobs with [I] varied linearly, kinact/KI was determined from the slope of the line. All the experiments were performed in triplicate. All fluorescence measurements were taken at absorption/emission wavelength of 400/505 nm using an EnVision 2105 plate reader. Crystallization of M^Pro in Complex with Inhibitors

[3] = target: SARS-CoV-2 PL^Pro (Severe acute respiratory syndrome coronavirus 2, UniProt P0DTD1); assay: Determination of IC50 values for SARS-CoV-2 PL^Pro (Z-RLRGG-AMC substrate); assay type: biochemical; conditions: 30 nM PL^Pro, 20 min preincubation; read-out: PL^Pro IC50
[4] = target: T3, Cathepsin L (Homo sapiens, UniProt P07711); assay: Cathepsin L inhibition assay kit (Abcam), IC50 and kinact/KI; assay type: biochemical; conditions: for IC50: 20 min pretreatment; for kinact/KI: read-out: Cathepsin L kinact/KI
T3 construct: purchased Abcam ab197012
T3 sequence (P07711 114-333): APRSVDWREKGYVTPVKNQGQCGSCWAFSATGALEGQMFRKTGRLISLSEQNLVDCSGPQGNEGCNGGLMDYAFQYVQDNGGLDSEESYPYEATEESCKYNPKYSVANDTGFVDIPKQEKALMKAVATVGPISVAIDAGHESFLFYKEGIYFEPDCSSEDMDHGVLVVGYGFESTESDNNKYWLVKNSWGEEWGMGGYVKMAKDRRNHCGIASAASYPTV
Experimental: as §1
IC50 and kinact/KI values of the inhibitors were determined using commercially available inhibition assay kits (Abcam) by following the manufacturer's protocol. […] The observed rates (kobs) were determined by fitting to a single-phase association equation. The resulting kobs values were plotted against the concentrations of inhibitor and the data were fit to equation 2 to derive the kinact/KI values,
as §2, with “All fluorescence measurements were taken at absorption/emission wavelength of 400/505 nm using an EnVision 2105 plate reader.” left out

[5] = system: SARS-CoV-2; assay: microbe, parasite or virus in culture; assay type: cell-based; conditions: A549-hACE2 cells
[6] = target: T1, SARS-CoV-2 M^Pro; assay: Determination of KI values for SARS-CoV-2 M^Pro (initial velocity, competitive inhibition); assay type: biochemical; conditions: competitive inhibition, initial velocity; read-out: M^Pro Ki
[7] = target: T1, SARS-CoV-2 M^Pro; assay: Determination of kinact/KI values for SARS-CoV-2 M^Pro (time- and concentration-dependent inactivation); assay type: biochemical
Experimental: where νo is the initial velocity of uninhibited reaction and νi is the initial velocity in the presence of inhibitor. All measurements were done in triplicate. Determination of kinact/KI values for SARS-CoV-2 M^Pro
Time- and concentration-dependent inactivation assays were done by following a similar protocol as described for Ki determination. M^Pro (12.5 nM final) was treated with the peptide-substrate (30 μM final) and test inhibitor (0-80 μM for D-FF(R/Cit)-(CMK/CMKyne); 0-1.25 mM for SM136-145) at time=0 to initiate inactivation process. The total volume of the assay mixture was 50 μL. Time-dependent increase in fluorescence was monitored at 485 nm with excitation at 340 nm for a period of 20-25 min. The observed rates (kobs) for the peptide cleavage in both the presence and absence of inhibitor were determined by fitting to a single-phase association equation. The resulting kobs values were plotted against the concentrations of inhibitor and linear fits were used to derive the slope that afforded the kinact/KI values. All measurements were done in triplicate.

[8] = system: A549-hACE2 cells; conditions: Table 2; data from medRxiv preprint; cited from earlier work
[9] = system: CYP3A4/5; conditions: data from medRxiv preprint; cited from earlier work
[10] = data from medRxiv preprint; cited from earlier work

Row | SMILES | IC50 [1] | IC50 [2] | IC50 [3] | Ki [6] | kinact/KI ([7]; read-out: M^Pro kinact/KI) | also measured
1 | C#CCOCCC(=O)NC(Cc1ccccc1)C(=O)NC(Cc1ccccc1)C(=O)NC(C=CC(=O)OCC)CC1CCNC1=O (centres unmarked) [SM145] | 0.8 µM | > 50 µM | > 50 µM | 5.3 µM | 400 M⁻¹ s⁻¹ | IC50 [4]: 0.2 µM; kinact/KI [4]: 417 M⁻¹ s⁻¹; antiviral activity compared with SM141 and SM142 [5]: significantly lower antiviral activity than SM141 and SM142; kinact/KI ([7]; read-out: second-order rate constant for enzyme inactivation (kinact/KI), M^Pro): 400 M⁻¹ s⁻¹
2 | CC(C)(C)[C@H](NC(=O)C(F)(F)F)C(=O)N1C[C@H]2[C@@H]([C@H]1C(=O)N[C@H](C#N)C[C@@H]1CCNC1=O)C2(C)C [nirmatrelvir] |  |  |  |  |  | cytoxcity [8]: >3 µM; CYP3A4/5 metabolism [9]: HIGH; Fa × Fg [10]: 95%
3 | CCOC(=O)C=CC(CC1CCNC1=O)NC(=O)C(Cc1ccccc1)NC(=O)C(Cc1ccccc1)NC(=O)OC(C)(C)C (centres unmarked) [SM140] | 2.2 µM | > 50 µM | > 50 µM | 16 µM | 150 M⁻¹ s⁻¹ | 
4 | N=C(N)NCCC[C@H](NC(=O)[C@H](Cc1ccccc1)NC(=O)[C@H](N)Cc1ccccc1)C(=O)CCl [D-FFR-CMK] (HELM PEPTIDE1{[dF].F.R.[ClC[*:1]]}$$$$V2.0) | 0.1 µM |  | 5 µM |  |  | 
5 | CCOC(=O)C=CC(CC1CCNC1=O)NC(=O)C(Cc1ccc(F)cc1)NC(=O)C(Cc1ccccc1)NC(=O)OC(C)(C)C (centres unmarked) [SM136] | 20 µM |  |  | 73 µM | 12.8 M⁻¹ s⁻¹ | 
6 | CCOC(=O)C=CC(CC1CCNC1=O)NC(=O)C(Cc1ccccc1)NC(=O)C(N)Cc1ccc(F)cc1 (centres unmarked) [SM143] | 0.9 µM | > 50 µM | > 50 µM | 7 µM | 350 M⁻¹ s⁻¹ | IC50 [4]: 0.073 µM; kinact/KI [4]: 2330 M⁻¹ s⁻¹
7 | CCOC(=O)C=CC(CC1CCNC1=O)NC(=O)C(Cc1ccc(F)cc1)NC(=O)C(Cc1ccc(F)cc1)NC(=O)OC(C)(C)C (centres unmarked) [SM138] |  |  |  |  | 10.8 M⁻¹ s⁻¹ | 
8 | CCOC(=O)C=CC(CC1CCNC1=O)NC(=O)C(Cc1ccc(F)cc1)NC(=O)C(N)Cc1ccc(F)cc1 (centres unmarked) [SM139] | 10 µM |  |  | 65 µM | 25 M⁻¹ s⁻¹ | 
9 | NC(=O)NCCC[C@H](NC(=O)[C@H](Cc1ccccc1)NC(=O)[C@H](N)Cc1ccccc1)C(=O)CCl [D-FFCit-CMK] (HELM PEPTIDE1{[dF].F.[Cit].[ClC[*:1]]}$$$$V2.0) | 0.13 µM |  | > 50 µM |  |  | 
10 | CCOC(=O)C=CC(CC1CCNC1=O)NC(=O)C(Cc1ccc(F)cc1)NC(=O)C(N)Cc1ccccc1 (centres unmarked) [SM137] | 10 µM |  |  | 50 µM | 30 M⁻¹ s⁻¹ | 
